Reference: US12630537B2, “Pyridazinone and methods of use thereof” (ALIGOS THERAPEUTICS, INC., priority 2020, dated 2026)
pEC50: −log10 of the molar value. Where two headings read alike, the source gives them in different places.

What was measured:
[1] = Microsomal stability assay, mouse; format: in vitro ADME; conditions: for Liver Microsomes % Remaining: 1 μM, time point not given; for half-life at 1 μM: liver microsomes, pH 7.4, 0.5 mg/mL microsomes, read-out: Liver Microsomes T1/2
Protocol: (§1) The assay was carried out in 96-well microtiter plates. Test compounds, at a final concentration of 1 μM was incubated at 37° C. with 0.5 mg/mL liver microsomes, and +/−1 mM NADPH in 100 mM potassium phosphate, pH 7.4 buffer with 3.3 mM MgCl2. […] At each of the time points (0, 15, 30 and 60 min), incubation was stopped by adding 150 μL of the quenching solutions (100% acetonitrile, 0.1% formic acid) and subsequently the mixtures were vortexed vigorously for 20 min and centrifuged at 4,000 RPM at 4° C. The supernatants (80 μL) were transferred to a clean 96-well plate and analyzed by LC/MS/MS. Verapamil at 1 μM with a final 0.1% DMSO was included as a positive control to verify assay performance.

[2] = Hepatocyte stability assay, mouse; format: in vitro ADME; conditions: for Hepatocytes % Remaining: 1 μM, time point not given; for half-life at 1 μM: cryopreserved hepatocytes, 0.5 million cells/mL, read-out: Hepatocytes T1/2
Protocol: (§2) Cryopreserved hepatocytes were taken from the liquid nitrogen tank and thawed quickly in a 37° C. water bath. As soon as the cells pulled away from the vial wall, they were decanted into 48 mL of warm thawing (HT) medium. Cells were centrifuged for 5 minutes at 420 RPM (50 g). After removing the supernatant, the pellets were re-suspended in 4 mL of warm Dulbecco's Modified Eagle Medium (DMEM). Cell density was counted by a hemocytometer.
(§3) The assay was carried out in 96-well microtiter plates. The study compound was incubated at 1 μM with 0.5 million cells/mL hepatocytes in DMEM for 0, 60, 120, and 180 minutes at 37° C. The volume of the incubation mixture was 37 μL with a final DMSO content of 0.1%. At each time point, the incubation was stopped by the addition of 150 μL quenching solution (100% acetonitrile, 0.1% formic acid containing the internal standard bucetin at 15 nM). Subsequently, the mixtures were vortexed for 20 minutes and centrifuged at 4,000 RPM at 10° C. An aliquot of 80 μL of the supernatant was transferred to a clean 96-well plate and analyzed by LC/MS/MS. Midazolam at 1 μM with a final DMSO content of 0.1% was included as a positive control to verify the assay performance.

[3] = Microsomal stability assay, human; format: in vitro ADME; conditions: for Liver Microsomes % Remaining: 1 μM, time point not given; for half-life at 1 μM: liver microsomes, pH 7.4, 0.5 mg/mL microsomes, read-out: Liver Microsomes T1/2
Protocol: as §1

[4] = Pharmacokinetics in rat (i.v.); format: in vivo, Male Sprague-Dawley rats; conditions: for clearance / half-life / concentration at 12 h: male, Sprague-Dawley, iv 1 mg/kg; for clearance / half-life: 60% PEG400 in water
Protocol: Male Sprague-Dawley rats were administered the study compound as an i.v. bolus dose of 1 mg/kg in a 0.500 mg/mL solution in 60% PEG400 in water.

[5] = Hepatocyte stability assay, human; format: in vitro ADME; conditions: for Hepatocytes % Remaining: 1 μM, time point not given; for half-life at 1 μM: cryopreserved hepatocytes, 0.5 million cells/mL, read-out: Hepatocytes T1/2
Protocol: as §2, §3

[6] = Microsomal stability assay, rat; format: in vitro ADME; conditions: for Liver Microsomes % Remaining: 1 μM, time point not given; for half-life at 1 μM: liver microsomes, pH 7.4, 0.5 mg/mL microsomes, read-out: Liver Microsomes T1/2
Protocol: as §1

[7] = Hepatocyte stability assay, rat; format: in vitro ADME; conditions: for Hepatocytes % Remaining: 1 μM, time point not given; for half-life at 1 μM: cryopreserved hepatocytes, 0.5 million cells/mL, read-out: Hepatocytes T1/2
Protocol: as §2, §3

THR alpha = molecular target: T1, THR alpha (Homo sapiens, UniProt P10827); test: HEK293T THRalpha/RXR luciferase reporter assay; format: cell-based; conditions: HEK293T TRE-luciferase reporter, 18-24 h; read-out: EC50 THR-α (HEK 293 Activity)
T1 construct: expressed in transfected cells; host or cells: HEK293T (ATCC CRL-3216)
T1 sequence (P10827 1-410 isoform P10827-2): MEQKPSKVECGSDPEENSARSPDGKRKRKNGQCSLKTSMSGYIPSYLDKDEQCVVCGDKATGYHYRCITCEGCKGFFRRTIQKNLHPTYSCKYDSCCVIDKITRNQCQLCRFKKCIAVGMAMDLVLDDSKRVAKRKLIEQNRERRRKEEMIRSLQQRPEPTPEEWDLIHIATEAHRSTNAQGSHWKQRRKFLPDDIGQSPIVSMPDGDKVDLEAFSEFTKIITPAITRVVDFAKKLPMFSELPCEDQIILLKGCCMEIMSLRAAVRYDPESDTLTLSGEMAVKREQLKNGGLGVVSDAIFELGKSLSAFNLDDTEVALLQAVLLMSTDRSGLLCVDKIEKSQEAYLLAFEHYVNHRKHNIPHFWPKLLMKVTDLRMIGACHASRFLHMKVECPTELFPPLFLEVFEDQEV
T1 sequence (P19793 1-462 partner): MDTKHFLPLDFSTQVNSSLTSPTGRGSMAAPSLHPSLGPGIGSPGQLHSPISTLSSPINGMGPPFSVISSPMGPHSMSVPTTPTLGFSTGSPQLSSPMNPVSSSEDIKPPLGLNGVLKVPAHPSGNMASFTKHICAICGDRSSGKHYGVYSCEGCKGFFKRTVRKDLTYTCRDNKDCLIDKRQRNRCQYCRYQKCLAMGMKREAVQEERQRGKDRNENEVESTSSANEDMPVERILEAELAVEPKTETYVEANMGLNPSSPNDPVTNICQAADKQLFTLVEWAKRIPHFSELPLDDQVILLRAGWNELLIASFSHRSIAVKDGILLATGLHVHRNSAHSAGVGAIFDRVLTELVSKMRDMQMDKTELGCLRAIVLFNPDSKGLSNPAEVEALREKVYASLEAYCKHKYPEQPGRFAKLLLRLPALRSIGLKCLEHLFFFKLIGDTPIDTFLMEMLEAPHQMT
Protocol: (§4) The purpose of this assay is to evaluate the effect of compounds on the thyroid hormone nuclear receptor pathway in HEK293T cells. To this end, HEK293T cells are transiently transfected with a luciferase reporter under the control of the thyroid response element (TRE), an RXR expression plasmid and either a THR alpha or THR beta expression plasmid. Transfected cells are stimulated with test compounds for 18-24 hours before activation of the thyroid hormone pathway is measured via a luciferase read-out.
(§5) Procedure. 24 hours prior to transfection, approximately […] HEK293T (ATCC, catalog #CRL-3216) were plated in one well of a 6-well-plate using DMEM (Hyclone, catalog #SH30022) supplemented with 10% FBS (Gibco, catalog #16000-044) and incubated overnight. Transfection complexes were prepared by mixing 12 μL of Lipofectamine 2000 (Invitrogen catalog #11668019) with 4 μg of a plasmid mixture at a ratio of 1:1:4 (TRalpha or TRbeta:RXR:TRE-Luc) in 200 μL OptiMem (Invitrogen catalog #11058-021) and added to the cells. […] Approximately 18-24 h after compound addition, 384 well plates were allowed to adjust to rt, 30 μL One-Glo (Promega catalog #E6120) is added to each well and luminescence was measured on a Perkin Elmer Enspire plate reader. Percent agonism was calculated using the following equation: 100×(sample−negative control)/(positive control−negative control).

[8] = molecular target: T2, human thyroid receptor beta ligand-binding domain (THR-β) (Homo sapiens, UniProt P10828); test: TR-FRET thyroid receptor beta coactivator assay (THR biochemical assay)
T2 sequence (P10828 217-461 limits assumed): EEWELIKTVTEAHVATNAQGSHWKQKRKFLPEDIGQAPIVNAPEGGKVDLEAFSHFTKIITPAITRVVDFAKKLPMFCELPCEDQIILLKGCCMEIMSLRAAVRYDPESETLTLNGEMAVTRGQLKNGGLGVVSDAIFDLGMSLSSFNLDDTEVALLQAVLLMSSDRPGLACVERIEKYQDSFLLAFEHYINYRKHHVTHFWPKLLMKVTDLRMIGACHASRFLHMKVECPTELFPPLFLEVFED
From the text: (§6) The TR-FRET thyroid receptor beta coactivator assay was used with slight, optimized modifications of the manufacturer's protocol (Invitrogen). The assay uses a terbium-labeled anti-GST antibody, a glutathione-S-transferase (GST) tagged human thyroid receptor, beta or alpha, ligand-binding domain (LBD), and a fluorescein labeled SRC2-2 coactivator peptide. […] The energy transfer was detected as an increase in the fluorescence emission of the fluorescein acceptor, and a decrease in the fluorescence emission of the terbium donor. The assay was performed in a 384-well black plate in a final volume of 20 μL. Serial dilution of various test agonists was performed in DMSO (1% final DMSO concentration) and added to the test plate. Thyroid receptor beta LBD was added to the plate at a final concentration of 1 nM, followed by the mixture of the fluorescein labeled SRC2-2 coactivator peptide, and the terbium-labeled anti-GST antibody at final concentrations of 200 nM and 2 nM respectively. The assay was incubated for 1 hr at rt protected from light.

THR beta = molecular target: T3, THR beta (Homo sapiens, UniProt P10828); test: HEK293T THRbeta/RXR luciferase reporter assay; format: cell-based
T3 construct: expressed in transfected cells; host or cells: HEK293T (ATCC CRL-3216)
T3 sequence (P10828 1-461): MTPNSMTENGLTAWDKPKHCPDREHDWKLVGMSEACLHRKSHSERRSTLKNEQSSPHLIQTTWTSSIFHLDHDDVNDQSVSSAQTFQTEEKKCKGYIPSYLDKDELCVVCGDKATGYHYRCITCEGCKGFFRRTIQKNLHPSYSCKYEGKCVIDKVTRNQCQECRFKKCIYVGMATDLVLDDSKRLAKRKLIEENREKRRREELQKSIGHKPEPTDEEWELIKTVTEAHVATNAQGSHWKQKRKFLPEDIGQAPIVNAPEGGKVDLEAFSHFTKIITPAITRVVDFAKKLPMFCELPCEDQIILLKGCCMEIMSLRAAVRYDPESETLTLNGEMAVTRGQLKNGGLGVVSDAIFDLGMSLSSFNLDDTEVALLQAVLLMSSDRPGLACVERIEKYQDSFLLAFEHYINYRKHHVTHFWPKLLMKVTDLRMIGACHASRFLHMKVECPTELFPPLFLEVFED
T3 sequence (P19793 1-462 partner): T1 sequence (P19793 1-462 partner)
Protocol: as §4, §5

[9] = molecular target: human thyroid receptor alpha ligand-binding domain (THR-α) (Homo sapiens, UniProt P10827); test: TR-FRET thyroid receptor coactivator assay (THR biochemical assay), alpha
From the text: as §6

[10] = test system: WT C57BL/6 mice fed a high fat diet; test: Cholesterol reduction in a murine efficacy model; format: in vivo, mouse; conditions: 0.025 mg/kg BID p.o., 7 days, high fat diet C57BL/6 mice
Protocol: Model description. WT C57BL/6 mice were fed a high fat diet (D12109C) for 2 weeks. Prior to the administration of compound 1a, blood was drawn to measure the baseline lipid levels. Compound 1a was dosed daily (p.o.) for 7 days. Blood was drawn to measure lipid levels.

[11] = Pharmacokinetic profile in mouse; format: in vivo

SMILES | Liver Microsomes % Remaining [1] | half-life at 1 μM [1] [h] | Hepatocytes % Remaining [2] | half-life at 1 μM [2] [h] | Liver Microsomes % Remaining [3] | half-life at 1 μM [3] [h] | clearance ([4]; plasma) [mL/min/kg] | half-life ([4]; plasma) [h] | Hepatocytes % Remaining [5] | half-life at 1 μM [5] [h] | Liver Microsomes % Remaining [6] | half-life at 1 μM [6] [h] | Hepatocytes % Remaining [7] | half-life at 1 μM [7] [h] | other results
C#Cc1nn(-c2cc(Cl)c(Oc3cc(C(C)C)c(=O)[nH]n3)c(Cl)c2)c(=O)[nH]c1=O [Compound 2, reference compound] | (94) % | > 1 | (18) % | 1.18 | (84) % | > 1 | 9.14 | 1.31 | (31) % | 1.72 | (85) % | > 1 | (24) % | 1.43 | –
CC(c1cc(Oc2c(Cl)cc(-n3nc(N)c(=O)[nH]c3=O)cc2Cl)n[nH]c1=O)C1CC1 (single isomer, unassigned) [Compound 1a] | (100) % | > 1 | (88) % | > 6 | (107) % | > 1 | 2.14 | 5.25 | (100) % | > 6 | (98) % | > 1 | (107) % | > 6 | pEC50 (THR alpha): 6.70; pEC50 [8]: 7.59; THR-β Selectivity (Biochemical Activity) ([8]; THR-β over THR-α, TR-FRET assay): 9.5; in vitro THR-β selectivity compared to its enantiomer, compound 1b ([8]; biochemical assay, comparison in words): higher; pEC50 (THR beta; HEK293T TRE-luciferase reporter, 18-24 h, read-out: EC50 THR-β (HEK 293 Activity)): 7.42; THR-β Selectivity (HEK 293 Activity) (THR beta; THR-β over THR-α, HEK293T reporter): 5; pEC50 [9]: 6.60; reduction in cholesterol [10]: 24.5%; Liver/Heart Concentration ([4]; at 12 h): 62 at 12 h; in vivo half-life compared to compound 2 ([4]; comparison in words): unexpectedly longer; concentration at 12 h ([4]; liver, read-out: Liver conc. 12 h): 14400 ng/g; concentration at 12 h ([4]; plasma, read-out: Plasma conc. 12 h): 336 ng/mL; Liver/Heart Concentration ([11]; at 24 h): 27.6 at 24 h; clearance ([11]; in vivo): 6.3 mL/min/kg; half-life ([11]; in vivo): 2.87 h
